US20210386985A1, “BIODEGRADABLE MICRONEEDLES FOR TRANSDERMAL THERAPEUTIC AGENT DELIVERY” (THE REGENTS OF THE UNIVERSITY OF CALIFORNIA, priority 2018, published 2021)

Tested on: melanoma cell line A375
Test: In vitro anticancer efficacy of the released DOX (MTT and Live/Dead assay)
Assay type: cell-based, human
Settings: A375 cells, microneedles incubated 1 h
Experimental: A human melanoma cell line A375 was used as the model to investigate the anticancer efficiency of DOX released from the microneedles 14. After incubating microneedles 14 containing 10 μg of DOX with the plated cells for 1 h, the viability of A375 cells was examined using an MTT assay after 24 h. […] The DOX-induced cell death was further investigated by a Live/Dead assay, where live cells metabolized calcein AM into the green fluorescent calcein, and dead cells with compromised membrane integrity were stained by the red fluorescent dye EthD-1. […] The possible reason was that microneedles 14 with more crosslinking time would release less DOX at the same releasing time (1 h).
In vitro anticancer efficacy of the released DOX: In vitro cytotoxicity of the released DOX was evaluated using the melanoma cell line A375 as the model. Specifically, A375 cells were plated in 24-well plates (1×10^6 per well) and incubated for 24 h. Microneedles 14 with different crosslinking degrees were added and incubated for 1 h. After that, the microneedles 14 were removed from the wells, and A375 cells were incubated for another 24 h. The effects of DOX on the metabolic activity of A375 cells in vitro were tested with a rapid colorimetric MTT assay. The absorbance of the wells was read at 570 nm with 630 nm as the reference. […]

## COc1cccc2c1C(=O)c1c(O)c3c(c(O)c1C2=O)C[C@@](O)(C(=O)CO)C[C@@H]3O[C@H]1C[C@H](N)[C@H](O)[C@H](C)O1 [DOX, doxorubicin]
  cell death (Live/Dead assay): cell death was observed
